Laboratory results as given in patent US9358262B2, “Use of antioxidant-enriched fermented blueberry extracts in the treatment of diabetes” (priority 2003, dated 2016).
“Also recorded” adds a separate entry of the source.

Key:
[1] = system: LPS/IFN-γ-activated RAW 264.7 gamma NO(−) macrophages; test: Inhibition of nitric oxide production (nitrite, Griess reaction) in activated macrophages; format: cell-based, mouse; details: for Nitrite: 24 h after LPS/IFN-γ; for inhibition at 63 µM: RAW264.7, 63 μM (μM GAE for juices); for inhibition at 125 µM: RAW264.7, 125 μM (μM GAE for juices); for inhibition at 250 µM: RAW264.7, 250 μM (μM GAE for juices); for inhibition at 500 µM: RAW264.7, 500 μM (μM GAE for juices); for Effect on NO production, in words: over the tested concentrations
Experimental: (§1) Cell culture. The mouse monocyte/macrophage cell line RAW 264.7 gamma NO(−) [American Type Culture Collection (ATCC)] was cultured in RPMI-1640 supplemented with 10% (v/v) heat-inactivated FBS, streptomycin ([…]) and penicillin (100 units/ml). All cultures were incubated at 37° C. in a humidified atmosphere with 5% CO2. Cell number was assessed by trypan blue dye exclusion on a Neubauer hemacytometer. Cells were grown to 90% confluence in sterile cell culture flasks and gently detached using a scraper (Fisher Scientific). For phenolic compound treatment tests, cells were cultured in triplicate in Costar flat-bottom cell culture plates (Corning Inc.). Cells were plated at a density of 6×10^5 cells/well in 24-well cell culture plates and grown for 1 h to allow them to attach to the plate. Compounds to be tested were initially dissolved in 10 μl of DMSO, and then RPMI was added to make solutions in a series of concentrations with a dilution factor of 2. The final concentrations of test compound that cells received were 16, 31, 63, 125, 250, and 500 μM, respectively. For berry juices, the final concentrations were 16, 31, 63, 125, 250 and 500 μM GAE, respectively. Cells were supplemented with the test compounds for 1 h before stimulation with 10 ng/ml lipopolysaccharide (LPS) and 10-50 units/ml interferon gamma (IFN-γ). The activated cells were incubated for 24 h and then supernatants were collected to determine nitrite concentration and/or stored at −80° C. for further use. Control cells were grown under identical conditions but were not exposed to the test compounds or LPS/IFN-γ.
Nitric Oxide (NO) Determination. Nitrite concentration was used as an indication of NO production. The procedure for NO determination was based on the Griess reaction. The assay was assessed as in the methods of Wang and Mazza (2002a, 2002b) for cell supernatants supplemented with phenolic compounds or berry juices. In brief, 100 μL of cell culture supernatant or sodium nitrite standard was mixed with an equal volume of Griess reagent [a mixture of 0.1% (w/v) N-(1-naphthyl)-ethylenediamine dihydrochloride and 1% (w/v) sulfanilamide in 5% (v/v) phosphoric acid, the two parts being mixed together within 1 h of use] using a 96-well plate. A set of parallel analyses was also conducted by applying only 100 μL of 2.5% (v/v) phosphoric acid instead of Griess reagent to each of 100 μL of cell supernatants or the mixture of standard sodium nitrite and cyanidin chloride. After 20 min at room temperature, the absorbance at 540 nm was measured using the microtitration reader. The net absorbance of the product of the Griess reaction was obtained by subtracting that of anthocyanins from the total. The absorbance was referred to a nitrite standard curve to determine the nitrite concentration in the supernatants.
Inhibition of Nitric Oxide Production. RAW 264.7 gamma NO(−) cell line was derived from the RAW 264.7 mouse monocyte/macrophage cell line. […] When LPS/IFN-γ was administered to RAW 264.7 gamma (NO−) macrophages, NO production, measured as nitrite, increased dramatically from the basal level of 0 to ≧30 μM after 24 h. To determine the effects of cranberry and blueberry juice and other phenolic compounds on NO production, different concentrations of these compounds (500, 250, 125, 63, and 16 μM) were incubated with the LPS/IFN-γ-activated macrophages (Table 7). Cell viability was assayed to exclude the possibility that the inhibitory effects of phenolic compounds were due to their cytotoxicity. The MTT assay was used for the colorless phenolic compound-treated macrophages, whereas the resazurin assay was used for cranberry and blueberry juice-treated macrophages. […]

[2] = system: TNF-α production in LPS/IFN-γ-activated RAW 264.7 gamma NO(−) macrophages; test: TNF-α quantification (ELISA) in supernatants of activated macrophages; format: cell-based, mouse; details: for TNF-α: LPS/IFN-γ control = 100; for Effect on TNF-α production, in words: over the tested concentrations
Experimental: as §1, with “The final concentrations of test compound that cells received were 16, 31, 63, 125, 250, and 500 μM, respectively.” left out
Tumour necrosis factor alpha (TNF-α) Quantification. TNF-α in cell supernatants was determined by using an OptELISA set mouse TNF-α (mono/poly) from BD PharMingen. The enzyme-linked immunosorbent assay (ELISA) was carried out as specified by the manufacturer.

[3] = Mus musculus, read-out: Inhibitory effect (decrease of NO production)

Row | Compound | Nitrite ([1]; 16 μM (μM GAE for juices)) | Nitrite ([1]; 31 μM (μM GAE for juices)) | Nitrite ([1]; 63 μM (μM GAE for juices)) | Nitrite ([1]; 125 μM (μM GAE for juices)) | Nitrite ([1]; 250 μM (μM GAE for juices)) | Nitrite ([1]; 500 μM (μM GAE for juices)) | inhibition at 63 µM [1, 3] [%] | inhibition at 125 µM [1, 3] [%] | inhibition at 250 µM [1, 3] [%] | inhibition at 500 µM [1, 3] [%] | Effect on NO production, in words [1] | TNF-α ([2]; 50 μM) | TNF-α ([2]; 200 μM) | TNF-α ([2]; 400 μM) | TNF-α ([2]; 500 μM) | Effect on TNF-α production, in words [2] | also measured
1 | O=C(/C=C/c1ccc(O)c(O)c1)O[C@@H]1C[C@](O)(C(=O)O)C[C@@H](O)[C@H]1O [Chlorogenic acid] | 37.1 (0.4) μM | 39 (1) μM | 40.4 (1.64) μM | 41.7 (1.7) μM | 47.6 (1.4) μM | 46.6 (1.5) μM | -19.5 | -23.4 | -40.8 | -37.9 | showed no inhibitory effects; also recorded: induced production of NO | 105.7 (8.4) % | 99.2 (7.6) % | 126 (31.1) % | 115.6 (15.4) % | may induce TNF-α production | inhibition at 16 µM ([1]; Mus musculus, RAW264.7, 16 μM (μM GAE for juices), read-out: Inhibitory effect (decrease of NO production)): -9.6%; inhibition at 31 µM ([1]; Mus musculus, RAW264.7, 31 μM (μM GAE for juices), read-out: Inhibitory effect (decrease of NO production)): -15.2%
2 | O=C(O)c1cc(O)c(O)c(O)c1 [Gallic acid] | 36.2 (3.7) μM | 35.4 (2.9) μM | 29.3 (0.3) μM | 31.1 (5.9) μM | 25.2 (1.5) μM | 22.6 (0.6) μM | 10.5 | 19 | 23 | 30 | dose-dependent | 103.4 (3.2) % | 160.3 (8.4) % | 213.9 (54.8) % | 183.5 (19.8) % | may induce TNF-α production | Inhibitory effect (decrease of NO production) ([1]; 500 μM (μM GAE for juices), 500 µM): 30.9 (1.9) %; TNF-α ([2]; 100 μM): 126.2 (11) %; TNF-α ([2]; 300 μM): 257.4 (36.7) %
